Measurements reported in US20080119530A1, “Method for treatment and prevention of ultraviolet light induced skin pathologies” (priority 2006, published 2008).

Legend:
[1] = system: proliferating cell nuclear antigen (PCNA); test: PCNA expression in skin; assay type: in vivo, mouse; settings: sham-irradiated skin and UV-exposed skin
Description: It has been discovered that Erbb2 modulates the expression of genes important in both proliferation and apoptosis following UV exposure in vivo (Example 9). Accordingly, the influence of Erbb2 on both apoptosis and cell proliferation was assessed in order to determine the mechanisms of Erbb2's effect on hyperplasia in the skin after UV irradiation. Erbb2 suppresses UV-induced apoptosis in vitro, although the effect was slight (32). The percentage of TUNEL-positive basal cells was increased at 24 h after UV in vehicle-treated skin, consistent with previous observations in this animal model (13). […] Erbb2 reportedly suppresses keratinocyte differentiation (11), a process leading to keratinocyte death that is mechanistically and morphologically distinct from apoptosis. […] Mean proliferating cell nuclear antigen (PCNA) expression, a marker of cell proliferation, was less in Erbb2 inhibitor treated sham-irradiated skin and in UV-exposed skin when compared to the vehicle-treated controls.

[2] = target: insulin-like growth factor I receptor kinase (Homo sapiens, UniProt P08069)
Abl = Abl (Homo sapiens, UniProt P00519)
Chain of Abl (P00519 whole entry, species assumed): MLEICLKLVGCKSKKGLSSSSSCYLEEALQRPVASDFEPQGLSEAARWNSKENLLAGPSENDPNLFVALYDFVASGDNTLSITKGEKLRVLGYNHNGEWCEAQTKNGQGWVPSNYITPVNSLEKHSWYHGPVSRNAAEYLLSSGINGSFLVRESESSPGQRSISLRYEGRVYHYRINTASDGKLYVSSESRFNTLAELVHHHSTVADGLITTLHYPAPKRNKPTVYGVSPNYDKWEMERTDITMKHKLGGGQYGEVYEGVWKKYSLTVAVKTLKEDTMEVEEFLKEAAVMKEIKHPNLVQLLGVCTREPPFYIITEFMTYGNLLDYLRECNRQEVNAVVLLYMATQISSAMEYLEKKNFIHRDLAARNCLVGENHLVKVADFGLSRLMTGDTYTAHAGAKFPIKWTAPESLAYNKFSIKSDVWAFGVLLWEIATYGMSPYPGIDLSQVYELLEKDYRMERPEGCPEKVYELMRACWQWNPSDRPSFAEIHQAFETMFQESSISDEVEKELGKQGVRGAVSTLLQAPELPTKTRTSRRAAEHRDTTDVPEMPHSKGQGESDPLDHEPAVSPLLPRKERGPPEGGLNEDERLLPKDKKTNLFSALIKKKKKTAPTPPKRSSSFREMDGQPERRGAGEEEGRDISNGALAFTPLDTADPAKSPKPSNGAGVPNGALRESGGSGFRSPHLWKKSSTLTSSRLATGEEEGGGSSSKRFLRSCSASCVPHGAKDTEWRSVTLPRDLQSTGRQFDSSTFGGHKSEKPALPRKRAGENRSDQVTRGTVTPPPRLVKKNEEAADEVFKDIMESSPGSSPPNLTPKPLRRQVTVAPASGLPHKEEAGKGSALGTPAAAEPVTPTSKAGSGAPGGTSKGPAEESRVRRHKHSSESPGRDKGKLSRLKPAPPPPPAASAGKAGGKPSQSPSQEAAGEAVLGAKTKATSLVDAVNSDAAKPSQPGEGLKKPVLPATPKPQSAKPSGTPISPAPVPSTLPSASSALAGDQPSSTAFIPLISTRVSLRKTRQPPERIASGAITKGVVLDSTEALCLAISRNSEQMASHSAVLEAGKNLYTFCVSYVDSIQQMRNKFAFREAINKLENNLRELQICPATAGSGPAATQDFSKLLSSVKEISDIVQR

Chain of insulin-like growth factor I receptor kinase (P08069 31-1367): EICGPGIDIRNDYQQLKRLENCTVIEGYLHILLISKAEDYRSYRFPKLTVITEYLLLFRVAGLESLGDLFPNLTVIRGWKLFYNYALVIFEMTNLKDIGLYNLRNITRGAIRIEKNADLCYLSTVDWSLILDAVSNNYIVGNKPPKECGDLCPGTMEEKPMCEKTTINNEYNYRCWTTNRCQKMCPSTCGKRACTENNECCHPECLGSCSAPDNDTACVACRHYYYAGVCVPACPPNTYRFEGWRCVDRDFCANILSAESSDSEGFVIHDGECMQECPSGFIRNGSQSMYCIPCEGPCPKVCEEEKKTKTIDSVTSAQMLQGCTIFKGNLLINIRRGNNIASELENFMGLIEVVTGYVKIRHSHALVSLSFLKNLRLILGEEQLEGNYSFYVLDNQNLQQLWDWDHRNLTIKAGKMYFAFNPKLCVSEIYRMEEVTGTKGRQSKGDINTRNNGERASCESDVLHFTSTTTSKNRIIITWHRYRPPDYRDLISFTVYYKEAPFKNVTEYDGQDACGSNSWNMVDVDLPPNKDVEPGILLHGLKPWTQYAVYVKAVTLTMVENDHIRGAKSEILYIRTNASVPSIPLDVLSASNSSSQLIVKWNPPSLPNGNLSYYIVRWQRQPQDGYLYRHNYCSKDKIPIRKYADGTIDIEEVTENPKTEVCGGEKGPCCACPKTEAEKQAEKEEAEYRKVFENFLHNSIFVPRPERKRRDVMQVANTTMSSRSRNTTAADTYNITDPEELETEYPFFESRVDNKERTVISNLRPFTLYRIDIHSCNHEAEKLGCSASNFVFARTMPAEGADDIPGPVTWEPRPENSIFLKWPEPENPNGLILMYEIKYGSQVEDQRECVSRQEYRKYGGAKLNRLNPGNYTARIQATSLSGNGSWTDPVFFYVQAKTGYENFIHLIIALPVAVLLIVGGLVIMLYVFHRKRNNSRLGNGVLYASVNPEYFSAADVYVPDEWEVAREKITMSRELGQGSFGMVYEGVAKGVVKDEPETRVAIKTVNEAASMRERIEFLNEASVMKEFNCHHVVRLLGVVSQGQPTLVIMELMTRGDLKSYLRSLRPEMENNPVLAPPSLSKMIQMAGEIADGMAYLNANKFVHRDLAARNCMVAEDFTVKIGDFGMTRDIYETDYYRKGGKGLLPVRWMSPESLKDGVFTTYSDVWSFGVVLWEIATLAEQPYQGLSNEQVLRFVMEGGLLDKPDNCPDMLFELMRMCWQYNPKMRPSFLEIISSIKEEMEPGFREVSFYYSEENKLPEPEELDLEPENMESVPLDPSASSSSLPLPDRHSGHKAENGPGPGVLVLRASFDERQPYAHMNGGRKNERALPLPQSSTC

## COc1cc(/C=C(\C#N)C(N)=O)cc(CSc2nc3ccccc3s2)c1O [AG825]
[1]
  mean PCNA expression vs vehicle-treated controls: less
[2]
  fold higher IC50 for insulin-like growth factor I receptor kinase than for Erbb2: more than 100 fold
Abl
  fold higher IC50 for Abl than for Erbb2: more than 100 fold
